Results reported in article PMC1664607 (PLoS Medicine, 2006).
In brackets after ≈: the same amount, converted by molar mass. Where two headings read alike, the source gives them in different places.

Experiments:
CYP1A1/2 = test: 7-Ethoxyresorufin O-deethylation in human liver microsomes; assay type: in vitro ADME; details: 100 μM; 0.5 μM 7-ethoxyresorufin
S. typhimurium TA1537 = test: Bacterial reverse mutation (BRM) test; assay type: cell-based; details: S9 mix −; positive control ACR 80 μg/plate
Method: (§1) The BRM test was performed in accordance with OECD Guideline 471 using Salmonella tyiphimurium TA98, TA100, TA1535, and TA1537, and Escherichia coli WP2 uvrA [11]. Each bacterial strain was pre-cultured at 37 °C for 18 h using a nutrient broth (Nissui Pharmaceutical; http://www.nissui-pharm.co.jp/index_e.html). After adjustment to 2.4 at OD660 nm, each bacterial suspension was added to a test tube containing the designated compound in the absence or presence of rat liver microsome (S9) mix. After a 20-min incubation at 37 °C, top agar was added to each test tube and the contents were poured into minimum essential medium (Oriental Yeast; http://www.oyc.co.jp/e/index.htm). The number of revertants was counted 48 h after incubation at 37 °C.

[1] = test system: M. tuberculosis ATCC 35837 (H37Rv-E-R); test: microbe, parasite or virus in culture; assay type: cell-based; details: Mycobacterium tuberculosis, 336 h
[2] = test system: M. tuberculosis ATCC 35822 (H37Rv-H-R); test: microbe, parasite or virus in culture; assay type: cell-based; details: Mycobacterium tuberculosis, 336 h
[3] = test system: M. tuberculosis ATCC 35812 (Kurono); test: Susceptibility testing (agar dilution MIC); assay type: cell-based; details: Mycobacterium tuberculosis, ATCC35812, 336 h
[4] = test system: M. tuberculosis ATCC 35820 (H37Rv-S-R); test: microbe, parasite or virus in culture; assay type: cell-based; details: Mycobacterium tuberculosis, 336 h
[5] = test system: M. tuberculosis ATCC 25618 (H37Rv); test: Susceptibility testing (agar dilution MIC); assay type: cell-based; details: Mycobacterium tuberculosis, 336 h
[6] = test system: M. tuberculosis ATCC 35838 (H37Rv-R-R); test: microbe, parasite or virus in culture; assay type: cell-based; details: Mycobacterium tuberculosis, 336 h
[7] = test system: clinically isolated M. tuberculosis; test: microbe, parasite or virus in culture; assay type: cell-based; details: Mycobacterium tuberculosis; read-out: MIC90
M. tuberculosis Kurono = test: Therapeutic efficacy in an experimental mouse model of chronic TB; assay type: in vivo, ICR mice; details: for Dose that could produce a CFU reduction of at least 95%: lung; for Dose that could produce a CFU reduction of at least 95% / Dose groups that showed a significant decrease in pulmonary viable bacterial count when compared with the vehicle control group: once daily for 28 d
[8] = Plasma levels in an experimental mouse model of TB; details: in vivo, po
S. typhimurium TA1535 = test: Bacterial reverse mutation (BRM) test; assay type: cell-based; details: S9 mix −; positive control NaN3 0.5 μg/plate
Method: as §1

[9] = test system: intracellular M. tuberculosis H37Rv in THP-1 cells; test: Activity against intracellular mycobacteria, 4-h pulsed exposure; assay type: cell-based, M. tuberculosis; human THP-1 cells; details: further 68-h culture
CYP2C8/9 = test: Tolubutamide methylhydroxylation in human liver microsomes; assay type: in vitro ADME; details: 100 μM; 400 μM tolbutamide
[10] = mouse, in vivo, po
[11] = 7H11 agar, 37 °C, 14 d, read-out: MIC

SMILES: O=c1cc(-c2ccccc2)oc2c1ccc1ccccc12 [7,8-Benzoflavone, 7,8-benzoflavone]
- Percent of Control (CYP1A1/2): 3.8% of Control

SMILES: Nc1c2ccccc2nc2ccccc12 [ACR, 9-aminoacridine]
- Revertants/Plate (S. typhimurium TA1537): 64 953 Revertants/Plate

SMILES: CCC1Cn2cc([N+](=O)[O-])nc2O1 (stereo not drawn) [CGI-17341]
- MIC [1]: 0.2 µg/mL (≈ 1.09 µM)
- MIC [2]: 0.2 µg/mL (≈ 1.09 µM)
- MIC [3, 11]: 0.2 µg/mL (≈ 1.09 µM)
- MIC [4]: 0.2 µg/mL (≈ 1.09 µM)
- MIC [5, 11]: 0.2 µg/mL (≈ 1.09 µM)
- MIC [6]: 0.05 µg/mL (≈ 0.273 µM)

SMILES: CC[C@@H](CO)NCCN[C@@H](CC)CO [EB, ethambutol]
- MIC [1]: 50 µg/mL (≈ 245 µM)
- MIC [2]: 3.13 µg/mL (≈ 15.3 µM)
- MIC90 [7]: 3.64 µg/mL (≈ 17.8 µM)
- Log of Viable Counts/Lung (M. tuberculosis Kurono; 20 mg/kg, 672 h): 6.923 ± 0.721^a:NS, b:NS
- Log of Viable Counts/Lung (M. tuberculosis Kurono; 40 mg/kg, 672 h): 6.696 ± 0.382^a:NS, b:NS
- Log of Viable Counts/Lung (M. tuberculosis Kurono; 80 mg/kg, 672 h): 6.429 ± 0.475^a:NS, b:NS
- Log of Viable Counts/Lung (M. tuberculosis Kurono; 160 mg/kg, 672 h): 5.642 ± 0.120^a:**, b:**
- Dose that could produce a CFU reduction of at least 95% (M. tuberculosis Kurono): > 160 mg/kg
- Dose groups that showed a significant decrease in pulmonary viable bacterial count when compared with the vehicle control group (M. tuberculosis Kurono): 160 mg/kg
- MIC [3]: 3.13 µg/mL (≈ 15.3 µM)
- MIC [4]: 3.13 µg/mL (≈ 15.3 µM)
- AUC(0-t) [8]: 12200 ng·h/mL
- concentration at 0.083 h [8]: 55 ± 49 ng/mL
- concentration at 0.25 h [8]: 1300 ± 939 ng/mL
- concentration at 0.5 h [8]: 3170 ± 392 ng/mL
- concentration at 1 h [8]: 3510 ± 1130 ng/mL
- concentration at 2 h [8]: 2510 ± 1010 ng/mL
- concentration at 4 h [8]: 1020 ± 202 ng/mL
- AUC(0-t) ([8]; 100 mg/kg): 12100 ng·h/mL
- Cmax ([8]; 100 mg/kg): 3510 ng/mL
- Tmax ([8]; 100 mg/kg): 1 h
- half-life ([8]; 100 mg/kg): 168 min
- MIC [5]: 1.56 µg/mL (≈ 7.64 µM)
- MIC [6]: 1.56 µg/mL (≈ 7.64 µM)

SMILES: Cc1nc2c([nH]1)c(=O)n(C)c(=O)n2Cc1ccco1 [Furafylline, furafylline]
- Percent of Control (CYP1A1/2): 32.3% of Control

SMILES: [N-]=[N+]=[N-].[Na+] [NaN3, sodium azide]
- Revertants/Plate (S. typhimurium TA1535): 6 174 Revertants/Plate

SMILES: O=[N+]([O-])c1cn2c(n1)OC[C@@H](OCc1ccc(OC(F)(F)F)cc1)C2 [PA-824]
- MIC [1]: 0.2 µg/mL (≈ 0.557 µM)
- MIC [2]: 0.05 µg/mL (≈ 0.139 µM)
- Log of Viable Counts/Lung (M. tuberculosis Kurono; 1.25 mg/kg, 672 h): 6.905 ± 0.382^c:NS, d:NS
- Log of Viable Counts/Lung (M. tuberculosis Kurono; 2.5 mg/kg, 672 h): 6.567 ± 0.108^c:NS, d:NS
- Log of Viable Counts/Lung (M. tuberculosis Kurono; 5 mg/kg, 672 h): 6.329 ± 0.303^c:NS, d:NS
- Log of Viable Counts/Lung (M. tuberculosis Kurono; 10 mg/kg, 672 h): 6.244 ± 0.728^c:NS, d:NS
- Log of Viable Counts/Lung (M. tuberculosis Kurono; 20 mg/kg, 672 h): 4.688 ± 0.944^c:**, d:**
- Log of Viable Counts/Lung (M. tuberculosis Kurono; 40 mg/kg, 672 h): 5.145 ± 0.444^c:**, d:**
- MIC [3]: 0.2 µg/mL (≈ 0.557 µM)
- Activity against intracellular M. tuberculosis H37Rv [9]: poor activity
- MIC [4]: 0.2 µg/mL (≈ 0.557 µM)
- MIC [5]: 0.2 µg/mL (≈ 0.557 µM)
- MIC [6]: 0.1 µg/mL (≈ 0.278 µM)

SMILES: NC(=O)c1cnccn1 [PZA, pyrazinamide]
- Log of Viable Counts/Lung (M. tuberculosis Kurono; 40 mg/kg, 672 h): 6.942 ± 0.205^a:NS, b:NS
- Log of Viable Counts/Lung (M. tuberculosis Kurono; 80 mg/kg, 672 h): 6.168 ± 0.774^a:*, b:NS
- Log of Viable Counts/Lung (M. tuberculosis Kurono; 160 mg/kg, 672 h): 5.823 ± 0.628^a:**, b:*
- Log of Viable Counts/Lung (M. tuberculosis Kurono; 320 mg/kg, 672 h): 5.009 ± 0.539^a:**, b:**
- Dose that could produce a CFU reduction of at least 95% (M. tuberculosis Kurono): 160 mg/kg
- Dose groups that showed a significant decrease in pulmonary viable bacterial count when compared with the vehicle control group (M. tuberculosis Kurono): 80, 160, and 320 mg/kg
- AUC(0-t) [8]: 197000 ng·h/mL
- concentration at 0.083 h [8]: 49600 ± 11200 ng/mL
- concentration at 0.25 h [8]: 59100 ± 14100 ng/mL
- concentration at 0.5 h [8]: 63200 ± 28900 ng/mL
- concentration at 1 h [8]: 60200 ± 18700 ng/mL
- concentration at 2 h [8]: 35500 ± 6450 ng/mL
- concentration at 4 h [8]: 18400 ± 3090 ng/mL
- AUC(0-t) ([8]; 100 mg/kg): 198000 ng·h/mL
- Cmax ([8]; 100 mg/kg): 63200 ng/mL
- Tmax ([8]; 100 mg/kg): 0.5 h
- half-life ([8]; 100 mg/kg): 66 min

SMILES: O=c1c(O)c(-c2ccc(O)c(O)c2)oc2cc(O)cc(O)c12 [Quercetin, quercetin]
- Percent of Control (CYP2C8/9): 30.6% of Control

SMILES: CO[C@H]1/C=C/O[C@@]2(C)Oc3c(C)c(O)c4c(O)c(c(/C=N/N5CCN(C)CC5)c(O)c4c3C2=O)NC(=O)/C(C)=C\C=C\[C@H](C)[C@H](O)[C@@H](C)[C@@H](O)[C@@H](C)[C@H](OC(C)=O)[C@@H]1C [RFP, rifampicin]
- MIC [1]: 0.2 µg/mL (≈ 0.243 µM)
- MIC [2]: 0.39 µg/mL (≈ 0.474 µM)
- MIC90 [7]: 0.288 µg/mL (≈ 0.35 µM)
- Log of Viable Counts/Lung (M. tuberculosis Kurono; 1.25 mg/kg once daily for 28 d (4 weeks), mean ± S.D., n = 5): 7.409 ± 0.201^c:NS, d:NS
- Log of Viable Counts/Lung (M. tuberculosis Kurono; 10 mg/kg once daily for 28 d (4 weeks), mean ± S.D., n = 5): 3.972 ± 0.596^c:**, d:**
- Log of Viable Counts/Lung (M. tuberculosis Kurono; 20 mg/kg once daily for 28 d (4 weeks), mean ± S.D., n = 5): 3.279 ± 0.330^c:**, d:**
- Dose that could produce a CFU reduction of at least 95% (M. tuberculosis Kurono): 3.5 mg/kg
- Concentration, 0.5 h [10]: 3.33 ± 0.87 µg/mL
- Concentration, 1 h [10]: 4.49 ± 1.04 µg/mL
- Concentration, 2 h [10]: 4.52 ± 1.90 µg/mL
- Concentration, 4 h [10]: 3.82 ± 0.70 µg/mL
- Concentration, 6 h [10]: 5.10 ± 1.63 µg/mL
- Concentration, 16 h [10]: 0.660 ± 0.260 µg/mL
- MIC [3, 11]: 0.39 µg/mL (≈ 0.474 µM)
- MIC [4]: 0.78 µg/mL (≈ 0.948 µM)
- AUC(0-t) ([8]; 5 mg/kg): 48200 ng·h/mL
- Cmax ([8]; 5 mg/kg): 5100 ng/mL
- Tmax ([8]; 5 mg/kg): 6 h
- MIC [5, 11]: 0.78 µg/mL (≈ 0.948 µM)
- MIC [6]: > 100 µg/mL

SMILES: CN[C@@H]1[C@H](O[C@H]2[C@H](O[C@H]3[C@H](O)[C@@H](O)[C@H](N=C(N)N)[C@@H](O)[C@@H]3N=C(N)N)O[C@@H](C)[C@]2(O)C=O)O[C@@H](CO)[C@H](O)[C@H]1O [SM, streptomycin]
- MIC [1]: 0.78 µg/mL (≈ 1.34 µM)
- MIC [2]: 0.78 µg/mL (≈ 1.34 µM)
- MIC90 [7]: 2.94 µg/mL (≈ 5.05 µM)
- Log of Viable Counts/Lung (M. tuberculosis Kurono; 20 mg/kg, 672 h): 6.000 ± 0.553^a:**, b:*
- Log of Viable Counts/Lung (M. tuberculosis Kurono; 40 mg/kg, 672 h): 6.040 ± 0.361^a:**, b:*
- Log of Viable Counts/Lung (M. tuberculosis Kurono; 80 mg/kg, 672 h): 5.739 ± 0.309^a:**, b:**
- Log of Viable Counts/Lung (M. tuberculosis Kurono; 160 mg/kg, 672 h): 5.184 ± 0.461^a:**, b:**
- Dose that could produce a CFU reduction of at least 95% (M. tuberculosis Kurono): 40 mg/kg
- Dose groups that showed a significant decrease in pulmonary viable bacterial count when compared with the vehicle control group (M. tuberculosis Kurono): 20, 40, 80, and 160 mg/kg
- MIC [3]: 0.78 µg/mL (≈ 1.34 µM)
- MIC [4]: > 100 µg/mL
- MIC [5]: 1.56 µg/mL (≈ 2.68 µM)
- MIC [6]: 0.78 µg/mL (≈ 1.34 µM)

SMILES: Nc1ccc(S(=O)(=O)Nc2ccnn2-c2ccccc2)cc1 [Sulfaphenazole, sulfaphenazole]
- Percent of Control (CYP2C8/9): 25.5% of Control
